In patent publication US12018059B2, “Human amylin analog polypeptides and methods of use” (Intarcia Therapeutics, Inc., priority 2018, dated 2024):
Values after ≈ are worked out from the molar mass of the structure shown. Read-outs that look alike come from different tables or passages of the source. Starred links: 1 amine or outer side, 2 acyl side, 3 side chain; linkers in the order of their positions; H or OH if unused. Positions of bridges follow the written chain, without caps; N, C: chain ends. Non-standard residues stand in square brackets, D forms with d. Residues, ends and D or L forms follow the SMILES beside them. Groups on a side chain read outwards from the residue. *: point of attachment. C20 diacid = O=C(O)CCCCCCCCCCCCCCCCCCC(=O)*; C18 diacid = O=C(O)CCCCCCCCCCCCCCCCC(=O)*; γGlu = O=C(O)[C@H](CCC(=O)[*:2])N[*:1]; Stearoyl = CCCCCCCCCCCCCCCCCC(=O)*

What was measured:
[1] = Solubility of amylin analog polypeptides (visual inspection, room temperature); assay type: physicochemical
Experimental: The analog polypeptides described herein were tested for solubility in saline 20% DMSO in water (i.e., bioassay buffer) or in aqueous (DI water) at room temperature. Samples were visually inspected for clarity of the sample, any appearance of turbidity or haziness.

in vivo = assay: in vivo; design: species or system Sprague-Dawley rats; conditions: rat, iv, 0.033 mg/kg
Procedure, shortened: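 Peptide plasma levels measured by UPLC-MS/MS (C18, product-ion monitoring) after protein precipitation or WCX SPE, calibrated in K2EDTA/protease-inhibitor rat plasma. Dosing in non-fasted male Sprague-Dawley rats (n=3): 0.033 mg/kg over 1 h by IV or SC infusion, or 0.3 mg/kg SC bolus; sampling up to 48 h.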

[2] = 27-day weight loss in combination with exenatide; conditions: LE DIO rats
[3] = Acute food intake inhibition after SC bolus injection (BioDAQ); conditions: Long Evans rats on 45% high fat diet
[4] = 13-day dose-response body weight loss, continuous SC infusion by osmotic mini-pump; conditions: 13 days, LE DIO rats; for DIO Dose Response 13 d weight loss, ΔΔ % weight loss: from baseline and vehicle control
[5] = Stability of amylin analog polypeptides in solution at 37° C. (purity by LC/MS and HPLC); assay type: physicochemical; conditions: 1 mg/ml, trifluoro acetate salt
Experimental: Several amylin analog polypeptides described herein were tested, as the trifluoro acetate salt, for stability in DMSO (i.e., organosulfur solvent) or in aqueous (i.e., in DI water) at 1 mg/ml solution. These analog polypeptides were incubated at 37° C., and samples were withdrawn at various time intervals and analyzed by LC/MS and HPLC for determination of purity and mass of the parent peptide and extent of any degradation products. The purity results of these analyses are shown in Tables 6A & 6B and are considered indicative of stability.

[6] = in vivo; cited from earlier work
[7] = in serum; cited from earlier work

In the case of `CCCCCCCCCCCCCCCCCC(=O)N[C@@H](CCC(=O)N[C@@H](CCC(=O)N[C@@H](CCC(=O)NCCCC[C@@H](NC(=O)[C@H](CCC(=O)O)NC(=O)[C@H](CC(N)=O)NC(=O)[C@H](C)NC(=O)[C@H](CC(C)C)NC(=O)[C@H](CCCNC(=N)N)NC(=O)[C@H](CCC(N)=O)NC(=O)[C@@H](NC(=O)[C@H](C)NC(=O)[C@@H]1CSSC[C@H](NC(=O)[C@@H](N)CO)C(=O)N[C@@H](CC(N)=O)C(=O)N[C@@H]([C@@H](C)O)C(=O)N[C@@H](CO)C(=O)N[C@@H]([C@@H](C)O)C(=O)N1)[C@@H](C)O)C(=O)N[C@@H](Cc1c[nH]cn1)C(=O)N[C@@H](CCCCN)C(=O)N[C@@H](CO)C(=O)N[C@@H](CO)C(=O)N[C@@H](CC(N)=O)C(=O)N[C@@H](CC(N)=O)C(=O)N[C@@H](Cc1ccccc1)C(=O)NCC(=O)N1CCC[C@H]1C(=O)N[C@H](C(=O)N[C@@H](CC(C)C)C(=O)N1CCC[C@H]1C(=O)N1CCC[C@H]1C(=O)N[C@H](C(=O)N[C@@H](CCCCN)C(=O)N[C@H](C(=O)NCC(=O)N[C@@H](CO)C(=O)N[C@@H](CCC(=O)O)C(=O)N[C@H](C(=O)N[C@@H](Cc1ccc(O)cc1)C(N)=O)[C@@H](C)O)C(C)C)[C@@H](C)O)[C@@H](C)CC)C(=O)O)C(=O)O)C(=O)O` [Compound A13] (H-SCNTSTCATQRLANE[dK]([γGlu-γGlu-γGlu-Stearoyl])HKSSNNFGPILPPTKVGSETY-NH2; disulfide 2-7; N-terminus assumed), the solubility ([1]; Solubility) is reported as 63 mg/mL (≈ 13.6 mM), the Vd (in vivo; male, Sprague-Dawley) is reported as 0.398 L/kg and the clearance (in vivo; male, Sprague-Dawley) is reported as 0.705 mL/min/kg. The half-life (in vivo; male, Sprague-Dawley) was 7.53 h, the “DIO Combination + Exenatide 27 d weight loss, ΔΔ % weight loss” value ([2]; dose 3 mcg/kg + Exenatide 10 mcg/kg) was 9% and the “DIO Combination + Exenatide 27 d weight loss, ΔΔ % weight loss” value ([2]; dose 10 mcg/kg + Exenatide 10 mcg/kg) was 12%. For the same molecule, the “DIO Combination + Exenatide 27 d weight loss, ΔΔ % weight loss” value ([2]; dose 30 mcg/kg + Exenatide 10 mcg/kg) was 12%, the “Acute Food Intake % Inhibition vs vehicle” value ([3]; 0-24 hr after acute SC dosing) was 67% and the “Acute Food Intake % Inhibition vs vehicle” value ([3]; 25-48 hr after acute SC dosing) was 37%. The “Acute Food Intake % Inhibition vs vehicle” value ([3]; 49-72 hr after acute SC dosing) was 6%, the “DIO Dose Response 13 d weight loss, ED50” value [4] was 0.055 mg/kg and the “DIO Dose Response 13 d weight loss, ΔΔ % weight loss” value [4] was 5%.

`CC[C@H](C)[C@H](NC(=O)[C@@H]1CCCN1C(=O)CNC(=O)[C@H](Cc1ccccc1)NC(=O)[C@H](CC(N)=O)NC(=O)[C@H](CC(N)=O)NC(=O)[C@H](CO)NC(=O)[C@H](CO)NC(=O)[C@H](CCCCN)NC(=O)[C@H](Cc1c[nH]cn1)NC(=O)[C@H](CC(C)C)NC(=O)[C@H](CCC(=O)O)NC(=O)[C@H](CC(N)=O)NC(=O)[C@H](C)NC(=O)[C@H](CC(C)C)NC(=O)[C@H](CCCNC(=N)N)NC(=O)[C@H](CCC(N)=O)NC(=O)[C@@H](NC(=O)[C@H](C)NC(=O)[C@@H]1CSSC[C@H](NC(=O)[C@@H](N)CCCCNC(=O)CC[C@H](NC(=O)CC[C@H](NC(=O)CCCCCCCCCCCCCCCCCCC(=O)O)C(=O)O)C(=O)O)C(=O)N[C@@H](CC(N)=O)C(=O)N[C@@H]([C@@H](C)O)C(=O)N[C@@H](CO)C(=O)N[C@@H]([C@@H](C)O)C(=O)N1)[C@@H](C)O)C(=O)N[C@@H](CC(C)C)C(=O)N1CCC[C@H]1C(=O)N1CCC[C@H]1C(=O)N[C@H](C(=O)N[C@@H](CCCCN)C(=O)N[C@H](C(=O)NCC(=O)N[C@@H](CO)C(=O)N[C@@H](CCC(=O)O)C(=O)N[C@H](C(=O)N[C@@H](Cc1ccc(O)cc1)C(N)=O)[C@@H](C)O)C(C)C)[C@@H](C)O` [Compound A64] (H-K([γGlu-γGlu-C20 diacid])CNTSTCATQRLANELHKSSNNFGPILPPTKVGSETY-NH2; disulfide 2-7; N-terminus assumed) gave a purity of parent peptide (indicative of stability) ([5]; 20% DMSO in DI Water, Day 0 room temp) of 98.8%, a purity of parent peptide (indicative of stability) ([5]; 20% DMSO in DI Water, Day 5 37° C.) of 98.1% and a purity of parent peptide (indicative of stability) ([5]; 20% DMSO in DI Water, Day 8 37° C.) of 98.6%. The purity of parent peptide (indicative of stability) ([5]; 20% DMSO in DI Water, Day 12 37° C.) was 97.9%, the purity of parent peptide (indicative of stability) ([5]; 20% DMSO in DI Water, Day 19 37° C.) was 97.2% and the purity of parent peptide (indicative of stability) ([5]; 20% DMSO in DI Water, Day 25 37° C.) was 97.3%. It also gave a purity of parent peptide (indicative of stability) ([5]; 20% DMSO in DI Water, Day 32 37° C.) of 97.2%, a purity of parent peptide (indicative of stability) ([5]; DI Water, Day 0 room temp) of 100% and a purity of parent peptide (indicative of stability) ([5]; DI Water, Day 5 37° C.) of 99.1%. For the same molecule, the purity of parent peptide (indicative of stability) ([5]; DI Water, Day 8 37° C.) was 98.1%, the purity of parent peptide (indicative of stability) ([5]; DI Water, Day 12 37° C.) was 98.1% and the purity of parent peptide (indicative of stability) ([5]; DI Water, Day 19 37° C.) was 97.4%. The purity of parent peptide (indicative of stability) ([5]; DI Water, Day 25 37° C.) was 97.3%, the purity of parent peptide (indicative of stability) ([5]; DI Water, Day 32 37° C.) was 88.5% and the solubility ([1]; Acetate salt, 20% DMSO in DI H2O, room temperature, read-out: Solubility) was 123 mg/mL. It also gave a solubility ([1]; Acetate salt, DI H2O, room temperature, read-out: Solubility) of 104 mg/mL, a solubility ([1]; Acetate salt, Saline, room temperature, read-out: Solubility) of 88.3 mg/mL and a solubility ([1]; TFA salt, 20% DMSO in DI H2O, room temperature, read-out: Solubility) of 56 mg/mL. For the same molecule, the solubility ([1]; TFA salt, DI H2O, room temperature, read-out: Solubility) was 103 mg/mL, the Vd (in vivo) was 0.182 L/kg and the clearance (in vivo) was 0.0641 mL/min/kg. The half-life (in vivo) was 37.2 h.

With `CC[C@H](C)[C@H](NC(=O)[C@@H]1CCCN1C(=O)CNC(=O)[C@H](Cc1ccccc1)NC(=O)[C@H](CC(N)=O)NC(=O)[C@H](CC(N)=O)NC(=O)[C@H](CO)NC(=O)[C@H](CO)NC(=O)[C@H](CCCCN)NC(=O)[C@H](Cc1c[nH]cn1)NC(=O)[C@H](CC(C)C)NC(=O)[C@H](CCC(=O)O)NC(=O)[C@H](CC(N)=O)NC(=O)[C@H](C)NC(=O)[C@H](CC(C)C)NC(=O)[C@H](CCCNC(=N)N)NC(=O)[C@H](CCC(N)=O)NC(=O)[C@@H](NC(=O)[C@H](C)NC(=O)[C@@H]1CSSC[C@H](NC(=O)[C@@H](N)CCCCNC(=O)CC[C@H](NC(=O)CC[C@H](NC(=O)CCCCCCCCCCCCCCCCC(=O)O)C(=O)O)C(=O)O)C(=O)N[C@@H](CC(N)=O)C(=O)N[C@@H]([C@@H](C)O)C(=O)N[C@@H](CO)C(=O)N[C@@H]([C@@H](C)O)C(=O)N1)[C@@H](C)O)C(=O)N[C@@H](CC(C)C)C(=O)N1CCC[C@H]1C(=O)N1CCC[C@H]1C(=O)N[C@H](C(=O)N[C@@H](CCCCN)C(=O)N[C@H](C(=O)NCC(=O)N[C@@H](CO)C(=O)N[C@@H](CCC(=O)O)C(=O)N[C@H](C(=O)N[C@@H](Cc1ccc(O)cc1)C(N)=O)[C@@H](C)O)C(C)C)[C@@H](C)O` [Compound A65] (H-K([γGlu-γGlu-C18 diacid])CNTSTCATQRLANELHKSSNNFGPILPPTKVGSETY-NH2; disulfide 2-7; N-terminus assumed) the solubility ([1]; deionised water, TFA salt, DI H2O, room temperature, read-out: Solubility) was 138 mg/mL, the Vd (in vivo; male, Sprague-Dawley) was 0.175 L/kg and the clearance (in vivo; male, Sprague-Dawley) was 0.101 mL/min/kg. For the same molecule, the half-life (in vivo; male, Sprague-Dawley) was 22.6 h, the “DIO Combination + Exenatide 27 d weight loss, ΔΔ % weight loss” value ([2]; dose 100 mcg/kg + Exenatide 10 mcg/kg) was 8% and the “DIO Combination + Exenatide 27 d weight loss, ΔΔ % weight loss” value ([2]; dose 300 mcg/kg + Exenatide 10 mcg/kg) was 9%. For the same molecule, the “DIO Combination + Exenatide 27 d weight loss, ΔΔ % weight loss” value ([2]; dose 600 mcg/kg + Exenatide 10 mcg/kg) was 12%, the “Acute Food Intake % Inhibition vs vehicle” value ([3]; 0-24 hr after acute SC dosing) was 50% and the “Acute Food Intake % Inhibition vs vehicle” value ([3]; 25-48 hr after acute SC dosing) was 25%. For the same molecule, the “Acute Food Intake % Inhibition vs vehicle” value ([3]; 49-72 hr after acute SC dosing) was 14%, the “DIO Dose Response 13 d weight loss, ED50” value [4] was 0.07 mg/kg and the “DIO Dose Response 13 d weight loss, ΔΔ % weight loss” value [4] was 3%.

For davalintide, the half-life [6] is given as “about 26 minutes”.

For “human amylin (KCNTATCATQRLANFLVHSSNNFGAILSSTNVGSNTY) [37-residue polypeptide hormone co-secreted with insulin from pancreatic β-cells]”, the half-life [7] is listed as “about 13 minutes”.
